Results on two substances are retold here after US7071167B2 (L'Oreal, priority 2002, dated 2006).

This test relates to Ca^2+ channel (L, verapamil site). Nature of the test: Equilibrium binding competition on type-L calcium channels, verapamil site ([3H](-)D 888 displacement). Details: species or system rat. The settings on record: for Mean % of binding / % of binding / Mean % of inhibition: Argireline 1.0%, magnesium gluconate 1 × 10^−4 M, combination 1 × 10^−4 M/1.0%; for % of binding: individual determinations, specific binding of 0.5 nM (3H)(-)D 888, rat cerebral cortex homogenates; for Mean % of inhibition: inhibition of specific binding. How it is done: The studies were performed using rat cerebral cortex homogenates (isolated membranes having type-L calcium channels at their surface).
The principle of an equilibrium displacement experiment includes measuring the specific binding at equilibrium, of a given concentration of radiolabelled ligand in the presence of a variable and increasing concentration of cold ligand. The cold ligand enters into competition with the radioactive ligand for its binding to the receptor; this is why this may be termed binding competition at equilibrium.
The experimental conditions according to the protocol described by Reynolds, I. J. et al., J. Pharmacol. Exp. Ther., vol. 237, p.
D 888 and D 600 are the reference molecules specific for the type-L calcium channels, verapamil site.
The specific binding of a ligand (labelled D 888) to the receptors (type-L calcium channels, verapamil site) is defined as the difference between the total binding and the […] determined in the presence of an excess of cold ligand. The results are expressed as a percentage of specific binding and as a percentage of inhibition of specific binding in the presence of the test compounds (Argireline®).

“And” between values parts separate entries of the source, which are not always exact repeats. Identical values can stand only once.

Turning to Magnesium gluconate, the “Mean % of binding” value is listed as 94.0%; the “% of binding” value was 93.8% and 95.2% and 93.0%; the “Mean % of inhibition” value came to 6%. Further, under “used alone at concentrations of 1×10^−6 M to 1×10^−4 M”, the “effect on the type-L calcium channels, verapamil site (in words)” value is given as “moderate effects”.
For the substance “Acetyl glutamyl-glutamyl-methionyl-glutaminyl-arginyl-arginylamide (Ac-EEMQRR-NH2) [Argireline ®, supplied at 0.05% in water]”, the “Mean % of binding” value was 96.1%; the “% of binding” value was 95.1% and 93.1% and 99.9%; the “Mean % of inhibition” value was found to be 4%. The “mean percentage of inhibition” value (Argireline at 5%) came out at 36%. Further, the “mean percentage of inhibition” value (Argireline at 10%) is on record as 52%.
